Test results: patent US11180488B2, “Isoxazole o-linked carbamoyl cyclohexyl acids as LPA antagonists” (BRISTOL-MYERS SQUIBB COMPANY, priority 2017, dated 2021)
Like-named read-outs stand apart in the source and are kept apart here.

Key:
[1] = test system: human foetal lung fibroblasts; conditions: cited from earlier work
UUO mice = conditions: mouse, in vivo; cited from earlier work
CTGF = conditions: co-treatment, MCT cells; cited from earlier work
[2] = test system: pancreatic cancer cell lines; conditions: cited from earlier work
[3] = test system: highly peritoneal metastatic pancreatic cancer cell line; conditions: cited from earlier work
IPF patients = conditions: 26-week clinical trial; cited from earlier work
nerve-injured mice = conditions: pretreatment; cited from earlier work
human LPA1 = molecular target: T1, human LPA1 (Homo sapiens, UniProt Q92633); assay: LPA1 functional antagonist assay (LPA-induced calcium flux); type: cell-based; conditions: CHO cells overexpressing human LPA1, calcium flux induced by 10 nM LPA
T1 construct: expressed in transfected cells; host or cells: Chinese hamster ovary (CHO) cells
T1 sequence (Q92633 whole entry): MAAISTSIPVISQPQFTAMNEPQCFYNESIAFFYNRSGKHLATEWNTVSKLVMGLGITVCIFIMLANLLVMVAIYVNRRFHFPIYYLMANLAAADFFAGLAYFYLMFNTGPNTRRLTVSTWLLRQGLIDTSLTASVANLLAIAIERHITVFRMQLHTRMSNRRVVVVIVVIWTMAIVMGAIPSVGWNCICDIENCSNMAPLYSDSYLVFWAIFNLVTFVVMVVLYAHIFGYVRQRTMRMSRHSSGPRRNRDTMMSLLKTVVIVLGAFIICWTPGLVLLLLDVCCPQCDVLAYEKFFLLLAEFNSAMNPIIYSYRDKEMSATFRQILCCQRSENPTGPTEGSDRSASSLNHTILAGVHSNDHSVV
Experimental: The effectiveness of compounds of the present invention as LPA1 inhibitors can be determined in an LPA1 functional antagonist assay as follows:
Chinese hamster ovary cells overexpressing human LPA1 were plated overnight (15,000 cells/well) in poly-D-lysine coated 384-well microplates (Greiner bio-one, Cat #781946) in DMEM/F12 medium (Gibco, Cat #11039). Following overnight culture, cells were loaded with calcium indicator dye (AAT Bioquest Inc, Cat #34601) for 30 minutes at 37° C. The cells were then equilibrated to room temperature for 30 minutes before the assay. Test compounds solubilized in DMSO were transferred to 384 well non-binding surface plates (Corning, Cat #3575) using the Labcyte Echo acoustic dispense and diluted with assay buffer [1×HBSS with calcium/magnesium (Gibco Cat #14025-092), 20 mM HEPES (Gibco Cat #15630-080) and 0.1% fatty acid free BSA (Sigma Cat #A9205)] to a final concentration of 0.5% DMSO. Diluted compounds were added to the cells by FDSS6000 (Hamamatsu) at final concentrations ranging from 0.08 nM to 5 μM. and were then incubated for 20 min at room temperature at which time LPA (Avanti Polar Lipids Cat #857130C) was added at final concentrations of 10 nM to stimulate the cells. […] IC50 values were determined by fitting data to a 4-parameter logistic equation (GraphPad Prism, San Diego Calif.).

IC50 (human LPA1; read-out: hLPA1 IC50)	SMILES	other results
–	Cc1noc(-c2ccc(CSCCC(=O)O)cc2)c1NC(=O)OC(C)c1ccccc1Cl (centres unmarked) [Ki16425]	chemotaxis of human foetal lung fibroblasts induced by BAL from IPF patients [1]: blocked; fibroblast chemotactic activity in bronchoalveolar lavage samples of IPF subjects [1]: inhibited; renal fibrosis profile of treated UUO mice (UUO mice): closely resembled the profile of LPA1 (−/−) mice; induction of CTGF expression by LPA (CTGF): almost completely suppressed; in vitro migration in response to LPA and peritoneal fluid (ascites) [2]: effectively blocked; LPA-induced and ascites-induced invasion activity [3]: blocked
–	Cc1noc(-c2ccc(-c3ccc(C4(C(=O)O)CC4)cc3)cc2)c1NC(=O)O[C@H](C)c1ccccc1 [BMS-986020]	rate of FVC (forced vital capacity) decline (IPF patients): significantly reduce
–	C[C@@H](N)[C@H]1CC[C@H](C(=O)Nc2ccncc2)CC1 [Example Y-27632]	allodynia and hyperalgesia (nerve-injured mice): completely abolished
851 nM	Cc1noc(-c2ccc(OC3CCCC(c4nnn[nH]4)C3)cc2)c1COC(=O)N(C)C1CCCC1 (mixture of isomers) [Example 75, (5-(4-((3-(1H-tetrazol-5-yl)cyclohexyl)oxy)phenyl)-3-methylisoxazol-4-yl) methyl cyclopentyl(methyl)carbamate]	–
10 nM	CCCCCN(C)C(=O)OCc1c(C)noc1-c1ccc(O[C@H]2CCC[C@H](C(=O)O)C2)c(C)n1 [Example 19]	–
60 nM	CCCCN(C)C(=O)OC(C)c1c(C)noc1-c1ccc(O[C@H]2CCC[C@H](C(=O)O)C2)cc1 (some centres unmarked) [Example 52]	–
–	Cc1noc(-c2cnc(O[C@H]3CCC[C@H](C(=O)O)C3)cn2)c1COC(=O)N(C)C1CCCC1 [Example 55]	IC50 (human LPA1; read-out: LPA1 IC50): 88 nM
89 nM	Cc1noc(-c2ccc(O[C@H]3CCC[C@](C)(C(=O)O)C3)cc2)c1COC(=O)N(C)C1CCCC1 (racemic) [Example 8, (±)-Trans-3-(4-(4-(((cyclopentyl(methyl)carbamoyl)oxy)methyl)-3-methylisoxazol-5-yl)phenoxy)-1-methylcyclohexanecarboxylic Acid]	–
206 nM	Cc1noc(-c2ccc(O[C@H]3CCC[C@H](C(=O)O)C3)cc2)c1COC(=O)N(C)CC1CC1 [Example 37]	–
46 nM	Cc1noc(-c2ccc(O[C@H]3CCC[C@H](C(=O)O)C3)cn2)c1COC(=O)N(C)[C@@H](C)C1CC1 [Example 41]	–
13 nM	Cc1nc(-c2onc(C)c2COC(=O)N(C)CC2CCC2)ccc1O[C@H]1CCC[C@H](C(=O)O)C1 [Example 11]	–
11 nM	Cc1nc(-c2onc(C)c2COC(=O)N(C)CCC2CC2)ccc1O[C@H]1CCC[C@H](C(=O)O)C1 [Example 10, (1S,3S)-3-((6-(4-((((2-Cyclopropylethyl)(methyl)carbamoyl)oxy)methyl)-3-methylisoxa-zol-5-yl)-2-methylpyridin-3-yl)oxy)cyclohexanecarboxylic Acid]	–
379 nM	Cc1noc(-c2ccc(OC3CCCC(c4nnn[nH]4)C3)cc2)c1COC(=O)N(C)C1CCCC1 (single isomer, unassigned) [Example 77, (5-(4-((3-(1H-tetrazol-5-yl)cyclohexyl)oxy)phenyl)-3-methylisoxazol-4-yl)methyl cyclopentyl(methyl)carbamate]	–
–	Cc1noc(-c2ccc(O[C@H]3CCC[C@H](C(=O)O)C3)cn2)c1COC(=O)N(C)C(C1CC1)C1CC1 [Example 57]	IC50 (human LPA1; read-out: LPA1 IC50): 26 nM
82 nM	Cc1noc(-c2ccc(O[C@H]3CCC[C@H](C(=O)O)C3)cc2)c1COC(=O)N(C)CC1CCC1 [Example 34]	–
32 nM	Cc1noc(-c2ccc(O[C@H]3CCC[C@H](C(=O)O)C3)cc2)c1C(C)OC(=O)N(C)[C@H](C)C1CC1 (some centres unmarked) [Example 51]	–
2310 nM	Cc1noc(-c2ccc(OC3CCCC(c4nnn[nH]4)C3)cc2)c1COC(=O)N(C)C1CCCC1 (single isomer, unassigned) [Example 76, (5-(4-((3-(1H-tetrazol-5-yl)cyclohexyl)oxy)phenyl)-3-methylisoxazol-4-yl)methyl cyclopentyl(methyl)carbamate]	–
18 nM	Cc1noc(-c2ccc(O[C@@H]3CCC[C@@](F)(C(=O)O)C3)cc2)c1COC(=O)N(C)C1CCCC1 (racemic) [Example 3]	–
1650 nM	Cc1noc(-c2ccc(O[C@H]3CCC[C@H](C(=O)O)C3)cn2)c1COC(=O)N[C@H](C)C1CC1 [Example 40]	–
424 nM	Cc1noc(-c2ccc(O[C@H]3CCC[C@H](C(=O)O)C3)cc2)c1COC(=O)N(C)CCC1CCC1 (racemic) [Example 29]	–
2180 nM	Cc1noc(-c2ccc(O[C@@H]3CCC[C@](C)(C(=O)O)C3)cc2)c1COC(=O)N(C)C1CCCC1 (racemic) [Example 7, (±)-Cis-3-(4-(4-(((cyclopentyl(methyl)carbamoyl)oxy)methyl)-3-methylisoxazol-5-yl)phenoxy)-1-methylcyclohexanecarboxylic Acid]	–
